Data taken from publication PMC5656596, “Yucasin DF, a potent and persistent inhibitor of auxin biosynthesis in plants” (Scientific Reports, 2017).

Tests used:
AtYUC6 (YUC6) [1] = target: T1, AtYUC6 (YUC6) (Arabidopsis thaliana, UniProt Q8VZ59); experiment: competition with photoaffinity probe labelling; assay type: binding; conditions: active site
T1 construct: purified recombinant
T1 sequence (Q8VZ59 1-417): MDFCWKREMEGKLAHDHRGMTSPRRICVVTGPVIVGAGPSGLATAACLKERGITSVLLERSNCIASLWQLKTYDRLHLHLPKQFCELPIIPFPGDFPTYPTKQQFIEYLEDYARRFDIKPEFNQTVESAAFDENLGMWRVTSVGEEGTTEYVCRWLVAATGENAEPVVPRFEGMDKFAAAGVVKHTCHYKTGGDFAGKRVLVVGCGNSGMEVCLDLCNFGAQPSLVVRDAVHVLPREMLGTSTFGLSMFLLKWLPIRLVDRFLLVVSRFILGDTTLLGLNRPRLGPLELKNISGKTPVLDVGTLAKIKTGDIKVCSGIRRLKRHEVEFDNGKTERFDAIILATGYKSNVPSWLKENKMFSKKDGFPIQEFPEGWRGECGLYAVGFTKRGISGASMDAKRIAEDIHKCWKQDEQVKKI

[2] = target: T2, AtYUC1 (AtYUC1-His, YUC1) (Arabidopsis thaliana, UniProt Q9SZY8); experiment: LC-MS/MS of IAA formed from IPA; assay type: biochemical; conditions: 20 µM IPA, 40 µM FAD, 1 mM NADPH, 10 mM Tris-HCl pH 7.5, 35 °C, 30 min
T2 construct: recombinant His-tagged, pET-53-DEST, E. coli BL21 Star (DE3), TALON purified, tag kept
T2 sequence (Q9SZY8 1-414): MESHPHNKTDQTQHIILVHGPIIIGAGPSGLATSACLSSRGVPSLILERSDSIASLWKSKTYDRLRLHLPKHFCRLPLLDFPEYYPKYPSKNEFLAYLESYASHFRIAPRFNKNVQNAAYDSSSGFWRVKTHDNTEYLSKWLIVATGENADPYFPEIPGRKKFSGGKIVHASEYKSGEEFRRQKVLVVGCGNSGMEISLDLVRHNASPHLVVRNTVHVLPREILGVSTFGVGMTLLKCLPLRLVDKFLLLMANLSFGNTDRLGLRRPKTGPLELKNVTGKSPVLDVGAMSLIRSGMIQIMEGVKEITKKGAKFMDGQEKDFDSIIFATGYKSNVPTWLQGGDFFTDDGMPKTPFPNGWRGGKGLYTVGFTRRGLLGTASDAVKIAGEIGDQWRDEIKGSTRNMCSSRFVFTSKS

AtYUC6 (YUC6) [3] = target: T1, AtYUC6 (YUC6); experiment: photoaffinity labelling, Staudinger-Bertozzi ligation to fluorescent phosphine, SDS-PAGE; assay type: binding; conditions: 20 µM probe, 254 nm UV, on ice, 10 mM phosphate buffer; active site, competitive with IPA and PPA; covalent; labelled compound

## O=C(O)C(=O)Cc1ccccc1 [PPA]
AtYUC6 (YUC6) [1]; 200 µM PPA against 20 µM probe
  competition with photoaffinity probe labelling: The fluorescent signal disappeared when the probe was photoactivated in the presence of the substrates

## Fc1cccc(F)c1-c1n[nH]c(=S)[nH]1 [compound 1, 5-[2,6-difluorophenyl]-2,4-dihydro-[1,2,4]-triazole-3-thione]
[2]
  enzyme activity at 1 or 10 μM inhibitor: we measured the inhibitory activity of YDF on the recombinant AtYUC1 enzyme

## [N-]=[N+]=NCc1cc(N=[N+]=[N-])cc(-c2n[nH]c(=S)[nH]2)c1 [photoaffinity yucasin probe]
AtYUC6 (YUC6) [3]
  photoaffinity labelling, Staudinger-Bertozzi ligation to fluorescent phosphine,: A fluorescent signal from the photoaffinity-labeled probe of YUC6 was detected

## S=c1[nH]nc(-c2ccc(Cl)cc2)[nH]1 [yucasin, 5-[4-chlorophenyl]-2,4-dihydro-[1,2,4]-triazole-3-thione]
[2]
  enzyme activity at 1 or 10 μM inhibitor: Yucasin inhibited the recombinant YUC1 enzyme activity more potent than YDF

## O=C(O)C(=O)Cc1c[nH]c2ccccc12 [IPA]
AtYUC6 (YUC6) [1]; 200 µM IPA against 20 µM probe
  competition with photoaffinity probe labelling: The fluorescent signal disappeared when the probe was photoactivated in the presence of the substrates
